{"source": "patent US11214803B2", "about": "“Modulators of YAP1 expression” (Ionis Pharmaceuticals, Inc., priority 2019, dated 2022)", "tested_on": "Yap1 mRNA", "assay": "Antisense inhibition of human Yap1 in A-431 cells by cEt gapmers, single dose (Example 2, RTS4814)", "format": "cell-based", "in_short": "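A-431 cells (5,000/well) took up 2,000 nM 3-10-3 cEt gapmer by free uptake for ~48 h. Yap1 mRNA was quantified by qRT-PCR with primer probe set RTS4814, normalized to RIBOGREEN total RNA, and reported as % of untreated control.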", "key": {"[1]": {"conditions": "Table 19, A-431 cells, 5,000 cells per well, free uptake, 2,000 nM modified oligonucleotide, approx. 48 hours, RTS4814, normalized to RIBOGREEN, Yap1 mRNA as percent of untreated control"}, "[2]": {"conditions": "Yap1 mRNA as percent of untreated control, A-431 cells, 3-10-3 cEt gapmers targeting SEQ ID NO.: 1, and 2, Table 31"}, "[3]": {"conditions": "Table 22, Yap1 mRNA as percent of untreated control, 3-10-3 cEt gapmers, single dose"}, "[4]": {"conditions": "Table 5, A-431 cells, 5,000 cells per well, free uptake, 2,000 nM modified oligonucleotide, approx. 48 hours, RTS4814, normalized to RIBOGREEN, Yap1 mRNA relative to untreated control cells"}, "[5]": {"conditions": "Table 20, Yap1 mRNA, percent of untreated control, 3-10-3 cEt gapmers targeting SEQ ID NO.: 1 and 2"}, "[6]": {"conditions": "Table 33, Yap1 mRNA, percent of untreated control, 3-10-3 cEt gapmers targeting SEQ ID NO.: 1, and 2"}}, "note": "Strand notation (5' to 3'): a small letter for the sugar, then the base; units joined by * are phosphorothioate-linked, units joined directly phosphodiester-linked; [ ] holds rarer units or linkages, { } end groups; capitals alone tell only the bases. k = constrained ethyl (cEt); [5mC] = 5-methylcytosine; d = 2'-deoxy (DNA)"}
{"substance": "1075369 (kG*kG*kA*dG*dA*dA*dT*dA*dA*dG*d[5mC]*dA*dA*kT*k[5mC]*kA; antisense) [Compound 1075369]", "values": [{"measurement": "YAP1 (% UTC)", "setting": "Table 23, Yap1 mRNA as percent of untreated control, 3-10-3 cEt gapmers, single dose", "value": 31, "unit": "% UTC"}]}
{"substance": "1076005 (kG*kT*kA*d[5mC]*dA*dA*dA*dA*dT*d[5mC]*dT*d[5mC]*d[5mC]*kA*kG*kG; antisense) [Compound 1076005]", "values": [{"measurement": "YAP1 (% UTC)", "setting": "[1]", "value": 69, "unit": "% UTC"}]}
{"substance": "1076209 (k[5mC]*kA*kT*dT*dA*dG*d[5mC]*dA*d[5mC]*dA*d[5mC]*d[5mC]*dT*kT*kT*kT; antisense) [compound 1076209]", "values": [{"measurement": "YAP1 (% UTC)", "setting": "[2]", "value": 12, "unit": "% UTC"}]}
{"substance": "1074344 (antisense kT*kG*kA*dG*dA*d[5mC]*dA*dT*d[5mC]*d[5mC]*d[5mC]*dG*dG*kG*kA*kG) [Compound 1074344]", "values": [{"measurement": "YAP1 (% UTC)", "setting": "[3]", "value": 99, "unit": "% UTC"}]}
{"substance": "1074443 (kT*k[5mC]*kA*dG*dA*d[5mC]*d[5mC]*dA*dG*dT*dA*dA*dA*kT*k[5mC]*kA; antisense) [Compound 1074443]", "values": [{"measurement": "YAP1 (% UTC)", "setting": "Table 25, Yap1 mRNA as percent of untreated control, 3-10-3 cEt gapmers targeting SEQ ID NO.: 1, and 2", "value": 7, "unit": "% UTC"}]}
{"substance": "716530 (antisense kA*k[5mC]*kA*dT*d[5mC]*dA*dA*dG*dG*d[5mC]*dT*dA*dT*kG*kA*kT) [Compound 716530]", "values": [{"measurement": "YAP1 (% UTC)", "setting": "[4]", "value": 83, "unit": "% UTC"}]}
{"substance": "1075910 (kG*kA*kA*dA*dT*dA*dA*dG*dG*dA*dG*dT*dA*kG*kG*kT; antisense) [Compound 1075910]", "values": [{"measurement": "YAP1 (% UTC)", "setting": "[5]", "value": 93, "unit": "% UTC"}]}
{"substance": "716453 (kG*kG*kT*dA*dA*dA*dA*dA*dA*dA*dA*d[5mC]*d[5mC]*kA*kG*kG; antisense) [Compound 716453]", "values": [{"measurement": "YAP1 (% UTC)", "setting": "Table 6, A-431 cells, 5,000 cells per well, free uptake, 2,000 nM modified oligonucleotide, approx. 48 hours, RTS4814, normalized to RIBOGREEN, Yap1 mRNA relative to untreated control cells", "value": 87, "unit": "% UTC"}]}
{"substance": "716515 (antisense kT*kA*kA*dG*d[5mC]*dT*dA*dA*dA*dG*d[5mC]*dT*dA*kA*kT*k[5mC]) [Compound 716515]", "values": [{"measurement": "YAP1 (% UTC)", "setting": "[4]", "value": 123, "unit": "% UTC"}]}
{"substance": "1076485 (antisense kA*kA*kA*d[5mC]*dG*dA*dA*dA*d[5mC]*dG*dG*dG*dA*kA*kA*kT) [Compound 1076485]", "values": [{"measurement": "YAP1 (% UTC)", "setting": "[1]", "value": 55, "unit": "% UTC"}]}
{"substance": "1074771 (kA*kA*kT*d[5mC]*dT*dT*dA*dT*d[5mC]*d[5mC]*d[5mC]*dA*dA*kT*kG*k[5mC]; antisense) [compound 1074771]", "values": [{"measurement": "YAP1 (% UTC)", "setting": "[6]", "value": 18, "unit": "% UTC"}]}
{"substance": "1074308 (antisense kG*k[5mC]*kA*dT*dT*dG*d[5mC]*d[5mC]*dT*dG*dT*dG*dG*k[5mC]*k[5mC]*kT) [Compound 1074308]", "values": [{"measurement": "YAP1 (% UTC)", "setting": "Table 18, A-431 cells, 5,000 cells per well, free uptake, 2,000 nM modified oligonucleotide, approx. 48 hours, RTS4814, normalized to RIBOGREEN, Yap1 mRNA as percent of untreated control", "value": 132, "unit": "% UTC"}]}
{"substance": "1074920 (antisense kA*k[5mC]*kT*d[5mC]*dA*dA*dG*dT*dT*dA*d[5mC]*dA*dT*k[5mC]*k[5mC]*k[5mC]) [Compound 1074920]", "values": [{"measurement": "YAP1 (% UTC)", "setting": "[3]", "value": 68, "unit": "% UTC"}]}
{"substance": "1075941 (kA*kG*kT*d[5mC]*dA*dA*dT*dA*dG*d[5mC]*dA*dA*dT*k[5mC]*kA*k[5mC]; antisense) [Compound 1075941]", "values": [{"measurement": "YAP1 (% UTC)", "setting": "[1]", "value": 11, "unit": "% UTC"}]}
{"substance": "1074896 (antisense kG*k[5mC]*kA*dA*dA*dG*dT*dT*d[5mC]*d[5mC]*dT*dA*dT*kG*k[5mC]*kT) [compound 1074896]", "values": [{"measurement": "YAP1 (% UTC)", "setting": "Yap1 mRNA as percent of untreated control, A-431 cells, 3-10-3 cEt gapmers targeting SEQ ID NO.: 1, and 2, Table 30", "value": 99, "unit": "% UTC"}]}
{"substance": "716511 (antisense kG*kA*kT*d[5mC]*dT*dT*d[5mC]*dT*dG*d[5mC]*dA*d[5mC]*dA*kT*kT*kA) [Compound 716511]", "values": [{"measurement": "YAP1 (% UTC)", "setting": "A-431 cells, 5,000 cells per well, free uptake, 2,000 nM modified oligonucleotide, approx. 48 hours, RTS4814, normalized to RIBOGREEN, Table 4, asterisk (*) = targets amplicon region of primer probe set", "value": 51, "unit": "% UTC"}]}
{"substance": "1076306 (k[5mC]*kT*kT*dT*dA*d[5mC]*dT*dA*d[5mC]*dT*dA*dA*dT*kA*kA*kG; antisense) [compound 1076306]", "values": [{"measurement": "YAP1 (% UTC)", "setting": "Table 32, Yap1 mRNA, percent of untreated control, 3-10-3 cEt gapmers targeting SEQ ID NO.: 1, and 2", "value": 99, "unit": "% UTC"}]}
{"substance": "1075749 (kA*kA*kT*dT*dA*dT*dG*dA*dA*dT*dG*dA*dT*kG*kG*kG; antisense) [Compound 1075749]", "values": [{"measurement": "YAP1 (% UTC)", "setting": "[1]", "value": 4, "unit": "% UTC"}]}
{"substance": "1075409 (antisense k[5mC]*kT*kT*dT*dA*dA*dA*dT*dA*dG*d[5mC]*dA*dG*kA*kG*kG) [compound 1075409]", "values": [{"measurement": "YAP1 (% UTC)", "setting": "[2]", "value": 22, "unit": "% UTC"}]}
{"substance": "1074643 (antisense kT*kT*kG*dA*dA*dG*dG*dG*d[5mC]*d[5mC]*dA*dA*dA*kA*kT*kA) [compound 1074643]", "values": [{"measurement": "YAP1 (% UTC)", "setting": "[6]", "value": 68, "unit": "% UTC"}]}
{"substance": "1074600 (antisense k[5mC]*kA*kG*d[5mC]*dT*dA*dA*d[5mC]*dT*d[5mC]*dA*dA*dA*kA*k[5mC]*k[5mC]) [Compound 1074600]", "values": [{"measurement": "YAP1 (% UTC)", "setting": "[3]", "value": 29, "unit": "% UTC"}]}
{"substance": "1076358 (kG*kT*kT*dT*dA*dA*d[5mC]*dA*dA*dA*d[5mC]*dT*dT*kG*kT*kA; antisense) [Compound 1076358]", "values": [{"measurement": "YAP1 (% UTC)", "setting": "[5]", "value": 43, "unit": "% UTC"}]}
